Assays:
CA II [1] = target: T1, CA II (Homo sapiens, UniProt P00918); test: stopped-flow CO2 hydrase assay; type: biochemical; details: read-out: KI (μM)^a^,^b / CA I
T1 construct: gene CA2; recombinant
Source text: stopped-flow CO2 hydrase assay on CA II

CA I [2] = target: T2, CA I (Homo sapiens, UniProt P00915); test: stopped-flow CO2 hydrase assay; type: biochemical; details: read-out: KI (μM)^a^,^b / CA I
T2 construct: gene CA1; recombinant
Source text: stopped-flow CO2 hydrase assay on CA I

CA II [3] = target: T1, CA II; test: biochemical; design: stopped-flow CO2 hydration assay of recombinant human CA isoforms, inhibition constant; details: 6 h incubation
Protocol: (§1) The CA-catalysed CO2 hydration activity was assayed by using an applied photophysics stopped-flow apparatus as reported in previous papers from our group. All CA isoforms were recombinant proteins, obtained as reported earlier. The newly synthesised compounds 7–10 were investigated for their CA inhibition activity against four pharmacologically relevant human CA isoforms—the ubiquitous cytosolic CA I and II as well as the cancer-associated CA IX and XII. In this study, CA I and CA II are considered off-target isoforms, that were tested in order to explore the selectivity of inhibitors towards the CA IX and CA XII isoforms. The clinically utilised acetazolamide (AAZ) was used as a reference drug. The following structure-activity relationship (SAR) can be deduced from the inhibition data reported in Table 1: It is worthwhile to underline here that a 6-h incubation of the enzyme and each compound 7–10 solutions is essential. When the incubation period of 15 min was used for assaying the inhibition, as generally done for the other types of CA inhibitors, only a weak inhibition was observed (data not shown). Furthermore, it appears to be the case with coumarins and related bioisosteres. […]

CA I [4] = target: T2, CA I; test: biochemical; design: stopped-flow CO2 hydration assay of recombinant human CA isoforms, inhibition constant; details: 6 h incubation
Protocol: as §1

T2 sequence (P00915 2-261): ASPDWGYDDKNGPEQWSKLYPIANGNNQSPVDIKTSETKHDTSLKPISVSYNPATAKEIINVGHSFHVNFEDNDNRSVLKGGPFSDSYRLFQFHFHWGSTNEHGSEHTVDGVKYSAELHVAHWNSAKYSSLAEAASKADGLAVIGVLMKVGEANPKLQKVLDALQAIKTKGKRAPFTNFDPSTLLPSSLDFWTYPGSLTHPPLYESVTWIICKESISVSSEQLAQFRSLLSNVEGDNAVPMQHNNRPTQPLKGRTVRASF

| Compound | Ki (CA II [1]) [µM] | Ki (CA I [2]) [µM] | also measured |
| --- | --- | --- | --- |
| 2-Hydroxy-7-(o-tolyl)-3H-benzo[f][1,2]oxaphosphepine 2-oxide [8i] | – | – | Ki (CA II [1]; […] h incubation): > 100 µM; Ki (CA I [2]; […] h incubation): > 100 µM |
| 7–(3-Fluorophenyl)-2-hydroxy-3H-benzo[f][1,2]oxaphosphepine 2-oxide [8h] | – | – | Ki (CA II [1]; 6 h incubation): > 100 µM; Ki (CA I [2]; 6 h incubation): > 100 µM |
| O=P1(O)CC=Cc2ccc(Br)cc2O1 [7b, 8-Bromo-2-hydroxy-3H-benzo[f][1,2]oxaphosphepine 2-oxide] | > 100 | > 100 | – |
| O=P1(O)CC=Cc2cc(-c3ccccc3)ccc2O1 [8a, 2-Hydroxy-7-phenyl-3H-benzo[f][1,2]oxaphosphepine 2-oxide] | > 100 | > 100 | – |
| COc1ccc(-c2ccc3c(c2)C=CCP(=O)(O)O3)cc1 [8b, 2-Hydroxy-7–(4-methoxyphenyl)-3H-benzo[f][1,2]oxaphosphepine 2-oxide] | > 100 | > 100 | – |
| CCOC(=O)c1ccc(-c2ccc3c(c2)C=CCP(=O)(O)O3)cc1 [8c, Ethyl 4–(2-hydroxy-2-oxido-3H-benzo[f][1,2]oxaphosphepin-7-yl)benzoate] | > 100 | > 100 | – |
| O=P1(O)CC=Cc2cc(-c3ccc(F)cc3)ccc2O1 [8d, 7–(4-Fluorophenyl)-2-hydroxy-3H-benzo[f][1,2]oxaphosphepine 2-oxide] | > 100 | > 100 | – |
| O=P1(O)CC=Cc2cc(-c3ccc(Cl)cc3)ccc2O1 [8e, 7–(4-Chlorophenyl)-2-hydroxy-3H-benzo[f][1,2]oxaphosphepine 2-oxide] | > 100 | > 100 | – |
| O=P1(O)CC=Cc2cc(-c3ccc(C(F)(F)F)cc3)ccc2O1 [8f, 2-Hydroxy-7–(4-(trifluoromethyl)phenyl)-3H-benzo[f][1,2]oxaphosphepine 2-oxide] | > 100 | > 100 | – |
| O=P1(O)CC=Cc2cc(-c3cc(Cl)cc(Cl)c3)ccc2O1 [8g, 7–(3,5-Dichlorophenyl)-2-hydroxy-3H-benzo[f][1,2]oxaphosphepine 2-oxide] | > 100 | > 100 | – |
| O=P1(O)CC=Cc2cc(-c3cccc(F)c3)ccc2O1 [8h, 7-(3-Fluorophenyl)-2-hydroxy-3H-benzo[f][1,2]oxaphosphepine 2-oxide] | – | – | Ki (CA II [3]): > 100 µM; Ki (CA I [4]): > 100 µM |
| COC(=O)c1cccc(-c2ccc3c(c2)C=CCP(=O)(O)O3)c1 [8j, Methyl 3–(2-hydroxy-2-oxido-3H-benzo[f][1,2]oxaphosphepin-7-yl)benzoate] | > 100 | > 100 | – |
| O=[N+]([O-])c1cccc(-c2ccc3c(c2)C=CCP(=O)(O)O3)c1 [8k, 2-Hydroxy-7–(3-nitrophenyl)-3H-benzo[f][1,2]oxaphosphepine 2-oxide] | > 100 | > 100 | – |
| CC(C)(C)c1ccc(-c2ccc3c(c2)C=CCP(=O)(O)O3)cc1 [8l, 7–(4-(tert-Butyl)phenyl)-2-hydroxy-3H-benzo[f][1,2]oxaphosphepine 2-oxide] | > 100 | > 100 | – |
| O=P1(O)CC=Cc2ccc(-c3ccccc3)cc2O1 [9a, 2-Hydroxy-8-phenyl-3H-benzo[f][1,2]oxaphosphepine 2-oxide] | > 100 | > 100 | – |
| COc1ccc(-c2ccc3c(c2)OP(=O)(O)CC=C3)cc1 [9b, 2-Hydroxy-8–(4-methoxyphenyl)-3H-benzo[f][1,2]oxaphosphepine 2-oxide] | > 100 | > 100 | – |
| CCOC(=O)c1ccc(-c2ccc3c(c2)OP(=O)(O)CC=C3)cc1 [9c, Ethyl 4–(2-hydroxy-2-oxido-3H-benzo[f][1,2]oxaphosphepin-8-yl)benzoate] | > 100 | > 100 | – |
| O=P1(O)CC=Cc2ccc(-c3ccc(Cl)cc3)cc2O1 [9d, 8–(4-Chlorophenyl)-2-hydroxy-3H-benzo[f][1,2]oxaphosphepine 2-oxide] | > 100 | > 100 | – |
| O=P1(O)CC=Cc2ccc(-c3cc(Cl)cc(Cl)c3)cc2O1 [9e, 8–(3,5-Dichlorophenyl)-2-hydroxy-3H-benzo[f][1,2]oxaphosphepine 2-oxide] | > 100 | > 100 | – |
| O=[N+]([O-])c1ccccc1-c1ccc2c(c1)OP(=O)(O)CC=C2 [9f, 2-Hydroxy-8–(2-nitrophenyl)-3H-benzo[f][1,2]oxaphosphepine 2-oxide] | > 100 | > 100 | – |
| O=P1(O)CC=Cc2cccc(-c3ccccc3)c2O1 [10a, 2-Hydroxy-9-phenyl-3H-benzo[f][1,2]oxaphosphepine 2-oxide] | > 100 | > 100 | – |
| COc1ccc(-c2cccc3c2OP(=O)(O)CC=C3)cc1 [10b, 2-Hydroxy-9–(4-methoxyphenyl)-3H-benzo[f][1,2]oxaphosphepine 2-oxide] | > 100 | > 100 | – |
| CCOC(=O)c1ccc(-c2cccc3c2OP(=O)(O)CC=C3)cc1 [10c, Ethyl 4–(2-hydroxy-2-oxido-3H-benzo[f][1,2]oxaphosphepin-9-yl)benzoate] | > 100 | > 100 | – |
| O=P1(O)CC=Cc2cccc(-c3ccc(Cl)cc3)c2O1 [10d, 9–(4-Chlorophenyl)-2-hydroxy-3H-benzo[f][1,2]oxaphosphepine 2-oxide] | > 100 | > 100 | – |
| O=P1(O)CC=Cc2cccc(-c3cc(Cl)cc(Cl)c3)c2O1 [10e, 9–(3,5-Dichlorophenyl)-2-hydroxy-3H-benzo[f][1,2]oxaphosphepine 2-oxide] | > 100 | > 100 | – |
| O=[N+]([O-])c1ccccc1-c1cccc2c1OP(=O)(O)CC=C2 [10f, 2-Hydroxy-9–(2-nitrophenyl)-3H-benzo[f][1,2]oxaphosphepine 2-oxide] | > 100 | > 100 | – |

— paper PMC10478600, “Aryl derivatives of 3H-1,2-benzoxaphosphepine 2-oxides as inhibitors of cancer-related carbonic anhydrase isoforms IX and XII” (Journal of Enzyme Inhibition and Medicinal Chemistry, 2023)
